# From US7812021B2, “Pyrrolidine aryl-ether as NK3 receptor antagonists” (Hoffmann-La Roche Inc., priority 2007, dated 2010)
# Molecular target: T1, recombinant human NK3 receptor (Homo sapiens, UniProt P29371)
# T1 construct: expressed in transfected cells; host or cells: HEK293 cells, transient expression; membranes
# T1 sequence (P29371 1-465): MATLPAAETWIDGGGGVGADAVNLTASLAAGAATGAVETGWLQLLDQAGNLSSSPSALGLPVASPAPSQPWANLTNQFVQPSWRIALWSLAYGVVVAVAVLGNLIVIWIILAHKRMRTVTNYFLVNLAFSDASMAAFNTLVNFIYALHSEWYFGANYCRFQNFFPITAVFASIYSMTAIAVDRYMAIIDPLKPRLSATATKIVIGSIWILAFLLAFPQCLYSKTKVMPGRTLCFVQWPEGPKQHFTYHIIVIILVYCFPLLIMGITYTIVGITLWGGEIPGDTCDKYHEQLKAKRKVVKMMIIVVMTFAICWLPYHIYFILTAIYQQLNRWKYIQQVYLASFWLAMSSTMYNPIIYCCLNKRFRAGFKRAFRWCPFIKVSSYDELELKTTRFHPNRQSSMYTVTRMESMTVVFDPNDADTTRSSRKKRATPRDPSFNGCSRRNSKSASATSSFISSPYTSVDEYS
# Test: [3H]SR142801 competition binding assay
# Conditions: membranes from HEK293 cells transiently expressing recombinant human NK3 receptor; [3H]SR142801 radioligand; Ki by Cheng-Prussoff
# Experimental: [^3H]SR142801 Competition Binding Assay
# hNK3 receptor binding experiment were performed using [^3H]SR142801 (Catalog No. TRK1035, specific activity: 74.0 Ci/mmol, Amersham, GE Healthcare UK limited, Buckinghamshire, UK) and membrane isolated from HEK293 cells transiently expressing recombinant human NK3 receptor. After thawing, the membrane homogenates were centrifuged at 48,000×g for 10 min at 4° C., the pellets were resuspended in the 50 mM Tris-HCl, 4 mM MnCl2, 1 μM phosphoramidon, 0.1% BSA binding buffer at pH 7.4 to a final assay concentration of 5 μg protein/well. For inhibition experiments, membranes were incubated with [^3H]SR142801 at a concentration equal to KD value of radioligand and 10 concentrations of the inhibitory compound (0.0003-10 μM) (in a total reaction volume of 500 μl) for 75 min at room temperature (RT). At the end of the incubation, membranes were filtered onto unit filter (96-well white microplate with bonded GF/C filter preincubated 1 h in 0.3% PEI+0.3% BSA, Packard BioScience, Meriden, Conn.) with a Filtermate 196 harvester (Packard BioScience) and washed 4 times with ice-cold 50 mM Tris-HCl, pH 7.4 buffer. Nonspecific binding was measured in the presence of 10 μM SB222200 for both radioligands. The radioactivity on the filter was counted (5 min) on a Packard Top-count microplate scintillation counter with quenching correction after addition of 45 μl of microscint 40 (Canberra Packard S. A., Zürich, Switzerland) and shaking for 1 h. Inhibition curves were fitted according to the Hill equation: y=100/(1+(x/IC50)^nH), where nH=slope factor using Excel-fit 4 software (Microsoft). IC50 values were derived from the inhibition curve and the affinity constant (Ki) values were calculated using the Cheng-Prussoff equation Ki=IC50/(1+[L]/KD) where [L] is the concentration of radioligand and KD is its dissociation constant at the receptor, derived from the saturation isotherm. All experiments were performed in duplicate and the mean±standard error (SEM) of the individual Ki values was calculated.
row,Compound,Ki [nM]
1,"C[C@@H](Oc1ncc(F)cn1)[C@@H]1CN(C(=O)N2CCN(S(C)(=O)=O)CC2)C[C@H]1c1ccc(Cl)c(Cl)c1 (racemic) [Example 51, {(3RS,4SR)-3-(3,4-Dichloro-phenyl)-4-[(RS)-1-(5-fluoro-pyrimidin-2-yloxy)-ethyl]-pyrrolidin-1-yl}-(4-methanesulfonyl-piperazin-1-yl)-methanone]",23.7
2,C[C@@H](Oc1ccc(C(F)(F)F)cc1)[C@@H]1CN(C(=O)N2CCN(CCN(C)C)CC2)C[C@H]1c1ccc(Cl)c(Cl)c1 (racemic) [Example 52],42.5
3,"C[C@@H](Oc1ncc(Cl)cn1)[C@@H]1CN(C(=O)N2CCN(S(C)(=O)=O)CC2)C[C@H]1c1ccc(Cl)c(Cl)c1 (racemic) [Example 53, [(3SR,4RS)-3-[(RS)-1-(5-Chloro-pyrimidin-2-yloxy)-ethyl]-4-(3,4-dichloro-phenyl)-pyrrolidin-1-yl]-(4-methanesulfonyl-piperazin-1-yl)-methanone]",6.8
4,"C[C@@H](Oc1ccc(Cl)cn1)[C@@H]1CN(C(=O)CCCCN2CCOCC2)C[C@H]1c1ccc(Cl)c(Cl)c1 (racemic) [Example 55, 1-[(3SR,4RS)-3-[(RS)-1-(5-Chloro-pyridin-2-yloxy)-ethyl]-4-(3,4-dichloro-phenyl)-pyrrolidin-1-yl]-5-morpholin-4-yl-pentan-1-one]",20
5,"C[C@@H](Oc1ccc(Cl)cn1)[C@@H]1CN(C(=O)N2CCN(CCN(C)C)CC2)C[C@H]1c1ccc(Cl)c(Cl)c1 (racemic) [Example 56, [(3SR,4RS)-3-[(RS)-1-(5-Chloro-pyridin-2-yloxy)-ethyl]-4-(3,4-dichloro-phenyl)-pyrrolidin-1-yl]-[4-(2-dimethylamino-ethyl)-piperazin-1-yl]-methanone]",2.6
6,"C[C@H](Oc1ccc(F)cn1)[C@@H]1CN(C(=O)N2CCN(S(C)(=O)=O)CC2)C[C@H]1c1ccc(Cl)c(Cl)c1 (racemic) [Example 57, {(3RS,4SR)-3-(3,4-Dichloro-phenyl)-4-[(SR)-1-(5-fluoro-pyridin-2-yloxy)-ethyl]-pyrrolidin-1-yl}-(4-methanesulfonyl-piperazin-1-yl)-methanone]",64.7
7,"C[C@@H](Oc1ccc(F)cn1)[C@@H]1CN(C(=O)N2CCN(S(C)(=O)=O)CC2)C[C@H]1c1ccc(Cl)c(Cl)c1 (racemic) [Example 59, {(3RS,4SR)-3-(3,4-Dichloro-phenyl)-4-[(RS)-1-(5-fluoro-pyridin-2-yloxy)-ethyl]-pyrrolidin-1-yl}-(4-methanesulfonyl-piperazin-1-yl)-methanone]",12.6
8,"C[C@@H](Oc1ccc(Cl)cn1)[C@@H]1CN(C(=O)N2CC3(COC3)C2)C[C@H]1c1ccc(Cl)c(Cl)c1 (racemic) [Example 61, [(3SR,4RS)-3-[(RS)-1-(5-Chloro-pyridin-2-yloxy)-ethyl]-4-(3,4-dichloro-phenyl)-pyrrolidin-1-yl]-(2-oxa-6-aza-spiro[3.3]hept-6-yl)-methanone]",39
9,"C[C@@H](Oc1ccc(Cl)cn1)[C@@H]1CN(C(=O)N2CCN3C(=O)CCC3C2)C[C@H]1c1ccc(Cl)c(Cl)c1 (mixture of isomers) [Example 62, 2-[(3SR,4RS)-3-[(RS)-1-(5-Chloro-pyridin-2-yloxy)-ethyl]-4-(3,4-dichloro-phenyl)-pyrrolidine-1-carbonyl]-hexahydro-pyrrolo[1,2-a]pyrazin-6-one]",24
10,CS(=O)(=O)N1CCN(C(=O)N2C[C@@H](COc3ccc(Cl)cn3)[C@H](c3ccc(Cl)c(Cl)c3)C2)CC1 (racemic) [Example 63],12
11,"N-(1-{2-[(3SR,4RS)-[3-(RS)-1-(4-Chloro-phenoxy)-ethyl]-4-(3,4-dichloro-phenyl)-pyrrolidin-1-yl]-2-oxo-ethyl}-piperidin-4-yl)-N-methyl-acetamide [Example 65]",20

# Next, values leading:
row,Ki [nM],Compound
1,19,"CC(=O)NC1(c2ccccc2)CCN(CC(=O)N2C[C@@H]([C@@H](C)Oc3ccc(Cl)cc3)[C@H](c3ccc(Cl)c(Cl)c3)C2)CC1 (racemic) [Example 64, N-(1-{2-[(3SR,4RS)-3-[(RS)-1-(4-Chloro-phenoxy)-ethyl]-4-(3,4-dichloro-phenyl)-pyrrolidin-1-yl]-2-oxo-ethyl}-4-phenyl-piperidin-4-yl)-acetamide]"
2,11,"CC(=O)N1CCN(CC(=O)N2C[C@@H]([C@@H](C)Oc3ccc(Cl)cc3)[C@H](c3ccc(Cl)c(Cl)c3)C2)CC1 (racemic) [Example 66, 2-(4-Acetyl-piperazin-1-yl)-1-[(3SR,4RS)-3-[(RS)-1-(4-chloro-phenoxy)-ethyl]-4-(3,4-dichloro-phenyl)-pyrrolidin-1-yl]-ethanone]"
3,53,"C[C@@H](Oc1ccc(Cl)cc1)[C@@H]1CN(C(=O)CN2CCC(CO)CC2)C[C@H]1c1ccc(Cl)c(Cl)c1 (racemic) [Example 67, 1-[(3SR,4RS)-3-[(RS)-1-(4-Chloro-phenoxy)-ethyl]-4-(3,4-dichloro-phenyl)-pyrrolidin-1-yl]-2-(4-hydroxymethyl-piperidin-1-yl)-ethanone]"
4,5.6,"C[C@H](Oc1ccc(C(F)(F)F)cn1)[C@H]1CN(C(=O)N2CCN(S(C)(=O)=O)CC2)C[C@@H]1c1ccc(Cl)c(Cl)c1 (racemic) [Example 69, {(3SR,4RS)-3-(3,4-Dichloro-phenyl)-4-[(SR)-1-(5-trifluoromethyl-pyridin-2-yloxy)ethyl]-pyrrolidin-1-yl}-(4-methanesulfonyl-piperazin-1-yl)-methanone]"
5,86,"C[C@H](Oc1ccc(C#N)cn1)[C@H]1CN(C(=O)CN2CCC(C#N)CC2)C[C@@H]1c1ccc(Cl)c(Cl)c1 (racemic) [Example 70, 6-{(SR)-1-[(3RS,4SR)-1-[2-(4-Cyano-piperidin-1-yl)-acetyl]-4-(3,4-dichloro-phenyl)-pyrrolidin-3-yl]-ethoxy}-nicotinonitrile]"
6,8.7,C[C@H](Oc1ccc(C#N)cn1)[C@H]1CN(C(=O)N2CCC(C#N)CC2)C[C@@H]1c1ccc(Cl)c(Cl)c1 (racemic) [Example 71]
7,93,"C[C@H](Oc1ccc(C(F)(F)F)cn1)[C@H]1CN(C(=O)N2CC3CC2CO3)C[C@@H]1c1ccc(Cl)c(Cl)c1 (mixture of isomers) [Example 73, {(3SR,4RS)-3-(3,4-Dichloro-phenyl)-4-[(SR)-1-(5-trifluoromethyl-pyridin-2-yloxy)-ethyl]-pyrrolidin-1-yl}-(2-oxa-5-aza-bicyclo[2.2.1]hept-5-yl)-methanone]"
8,27,"C[C@@H](Oc1ccc(Cl)cn1)[C@@H]1CN(C(=O)CN2CC3CC2CO3)C[C@H]1c1ccc(Cl)c(Cl)c1 (stereo partly drawn) [Example 68, 1-[(3S,4R)-3-[(R)-1-(5-Chloro-pyridin-2-yloxy)-ethyl]-4-(3,4-dichloro-phenyl)-pyrrolidin-1-yl]-2-(2-oxa-5-aza-bicyclo[2.2.1]hept-5-yl)-ethanone]"

# System: not given
# Test: not given
# Conditions: phase II trial; altered behaviour, delusion, hallucinations, extreme emotions, excited motor activity, incoherent speech; cited from earlier work
row,Compound,activity on positive symptoms of schizophrenia
1,"CC(=O)N(C)C1(c2ccccc2)CCN(CCC[C@]2(c3ccc(Cl)c(Cl)c3)CCCN(C(=O)c3ccccc3)C2)CC1 [SR 142,801, Osanetant]",active

# Same assay, conditions: phase II trial; depression, anhedonia, social isolation, memory and attention deficits; cited from earlier work
row,Compound,activity in the treatment of negative symptoms of schizophrenia
1,"CC(=O)N(C)C1(c2ccccc2)CCN(CCC[C@]2(c3ccc(Cl)c(Cl)c3)CCCN(C(=O)c3ccccc3)C2)CC1 [SR 142,801, Osanetant]",inactive
